Data from ChEMBL document CHEMBL5058564, “EUbOPEN Chemogenomics Library 2 (Incucyte)” (2022).

Key:
Assay type in all cases: toxicity, cell-based
U2OS = test: Incucyte cell viability with U2OS; details: human, 10 µM, compound concentration 10 uM
Fibroblast = test: Incucyte cell viability with human fibroblast; details: 10 µM, compound concentration 10 uM
HEK-293T = test: Incucyte cell viability with HEK293T; details: human, 10 µM, compound concentration 10 uM
[1] = 0 h, replicate number 1, timepoint 0 hours
[2] = 12 h, replicate number 1, timepoint 12 hours
[3] = 12 h, replicate number 2, timepoint 12 hours
[4] = 18 h, replicate number 1, timepoint 18 hours
[5] = 18 h, replicate number 2, timepoint 18 hours
[6] = 24 h, replicate number 1, timepoint 24 hours
[7] = 24 h, replicate number 2, timepoint 24 hours
[8] = 0 h, replicate number 2, timepoint 0 hours
[9] = 6 h, replicate number 1, timepoint 6 hours
[10] = 6 h, replicate number 2, timepoint 6 hours
Further: unitless GR value; below 1 slowed growth and below 0 cell loss.

Structure (SMILES): CC(=O)NCC(=O)N1[C@@H]2CC[C@H]1c1ccc(Nc3ncc(C(F)(F)F)c(NC4CCC4)n3)cc12 [PF-03814735]
- Growth Rate (U2OS; [1]): -0.24
- Growth Rate (U2OS; [2]): 0.23
- Growth Rate (U2OS; [3]): 0.56
- Growth Rate (U2OS; [4]): 0.36
- Growth Rate (U2OS; [5]): 0.22
- Growth Rate (U2OS; [6]): 0.28
- Growth Rate (U2OS; [7]): 0.12
- Growth Rate (Fibroblast; [1]): -0.04
- Growth Rate (Fibroblast; [8]): -0.37
- Growth Rate (Fibroblast; [2]): 0.58
- Growth Rate (Fibroblast; [4]): 0.72
- Growth Rate (Fibroblast; [5]): 0.79
- Growth Rate (Fibroblast; [6]): 0.26
- Growth Rate (Fibroblast; [7]): 0.62
- Growth Rate (HEK-293T; [9]): -0.73
- Growth Rate (HEK-293T; [10]): -0.88
- Growth Rate (HEK-293T; [2]): -0.54
- Growth Rate (HEK-293T; [3]): -0.65
- Growth Rate (HEK-293T; [4]): -0.45
- Growth Rate (HEK-293T; [5]): -0.48
- Growth Rate (HEK-293T; [6]): -0.31
- Growth Rate (HEK-293T; [7]): -0.41

Structure (SMILES): CC(C)N(CCCCOCC(=O)NS(C)(=O)=O)c1cnc(-c2ccccc2)c(-c2ccccc2)n1 [SELEXIPAG]
- Growth Rate (U2OS; [1]): 0.21
- Growth Rate (U2OS; [8]): -1
- Growth Rate (U2OS; [9]): 0.41
- Growth Rate (U2OS; [3]): 0.8
- Growth Rate (U2OS; [4]): 0.99
- Growth Rate (U2OS; [5]): 0.98
- Growth Rate (U2OS; [6]): 1
- Growth Rate (Fibroblast; [1]): 0.56
- Growth Rate (Fibroblast; [8]): 0.34
- Growth Rate (Fibroblast; [9]): 0.5
- Growth Rate (Fibroblast; [2]): 0.75
- Growth Rate (Fibroblast; [4]): 0.76
- Growth Rate (Fibroblast; [6]): 0.48
- Growth Rate (HEK-293T; [1]): 0.99
- Growth Rate (HEK-293T; [8]): 0.73
- Growth Rate (HEK-293T; [10]): 0.76
- Growth Rate (HEK-293T; [2]): 0.89
- Growth Rate (HEK-293T; [3]): 0.73

Structure (SMILES): NCCc1c[nH]c2ccc(C(N)=O)cc12.O=C(O)/C=C\C(=O)O
- Growth Rate (U2OS; [1]): -0.1
- Growth Rate (U2OS; [8]): 0.34
- Growth Rate (U2OS; [9]): 0.87
- Growth Rate (U2OS; [4]): 0.89
- Growth Rate (U2OS; [6]): 0.83
- Growth Rate (Fibroblast; [1]): 0.89
- Growth Rate (Fibroblast; [8]): -0.08
- Growth Rate (Fibroblast; [5]): 0.95
- Growth Rate (HEK-293T; [1]): 0.4
- Growth Rate (HEK-293T; [8]): -0.18
- Growth Rate (HEK-293T; [9]): 0.61
- Growth Rate (HEK-293T; [2]): 0.96
- Growth Rate (HEK-293T; [4]): 0.9
- Growth Rate (HEK-293T; [6]): 0.9

Structure (SMILES): CO[C@H]1CNC[C@@H](OCC2CCC(F)(F)CC2)[C@@H]1Nc1ncc(-c2cncc(C)c2)c2cc(C)c(=O)[nH]c12
- Growth Rate (U2OS; [1]): -0.36
- Growth Rate (U2OS; [9]): 0.62
- Growth Rate (U2OS; [2]): 0.39
- Growth Rate (U2OS; [3]): 0.98
- Growth Rate (U2OS; [4]): 0.7
- Growth Rate (U2OS; [5]): 0.97
- Growth Rate (U2OS; [6]): 0.53
- Growth Rate (U2OS; [7]): 1
- Growth Rate (Fibroblast; [1]): 0.72
- Growth Rate (Fibroblast; [8]): 0.95
- Growth Rate (Fibroblast; [9]): 0.63
- Growth Rate (Fibroblast; [10]): 0.24
- Growth Rate (Fibroblast; [2]): 0.16
- Growth Rate (Fibroblast; [3]): 0.53
- Growth Rate (Fibroblast; [4]): 0.28
- Growth Rate (Fibroblast; [5]): 0.64
- Growth Rate (Fibroblast; [6]): 0.1
- Growth Rate (Fibroblast; [7]): 0.73
- Growth Rate (HEK-293T; [8]): 0.51
- Growth Rate (HEK-293T; [2]): 0.87
- Growth Rate (HEK-293T; [4]): 0.84
- Growth Rate (HEK-293T; [6]): 0.85

Structure (SMILES): CN1CCN(c2cc(-c3ccccc3)nc(N)n2)CC1
- Growth Rate (U2OS; [1]): 0.75
- Growth Rate (U2OS; [10]): 0.59
- Growth Rate (U2OS; [3]): 0.96
- Growth Rate (U2OS; [4]): 0.97
- Growth Rate (Fibroblast; [1]): 0.2
- Growth Rate (Fibroblast; [8]): 0.38
- Growth Rate (Fibroblast; [2]): 0.86
- Growth Rate (Fibroblast; [4]): 0.76
- Growth Rate (Fibroblast; [6]): 0.83
- Growth Rate (HEK-293T; [10]): 0.96

Structure (SMILES): Cc1ccccc1N1CCN(CCc2nnc3n2CCCC3)CC1.Cl [DAPIPRAZOLE HYDROCHLORIDE]
- Growth Rate (U2OS; [1]): 0.33
- Growth Rate (U2OS; [9]): 0.94
- Growth Rate (U2OS; [2]): 0.78
- Growth Rate (Fibroblast; [1]): -0.42
- Growth Rate (Fibroblast; [8]): 0.16
- Growth Rate (Fibroblast; [10]): 0.85
- Growth Rate (Fibroblast; [2]): 0.81
- Growth Rate (Fibroblast; [6]): 0.68
- Growth Rate (HEK-293T; [8]): -0.18
- Growth Rate (HEK-293T; [9]): 0.83
- Growth Rate (HEK-293T; [4]): 0.93
- Growth Rate (HEK-293T; [6]): 0.96
